# Assay results published in patent US12415939B2, “Nano-adhesive and surface primer compound and use thereof” (The Regents of the University of California, priority 2015, dated 2025).
# Experiments:
# [1] = Contact angle measurements on SAM-modified substrates; type: physicochemical; conditions: SAM-modified nano-grooved SiO2
# Procedure: The nano-grooved SiO2 substrates passivated with Z-Cat-Ben or Z-Cat-Ben-F SAMs were prepared with the same procedure described above. For the reference substrate, the pre-cleaned and ultraviolet/ozone-treated (for 10 min) nano-grooved SiO2 substrate was passivated with n-decyltrichlorosilane (Gelest Inc.) in toluene solution (1% by volume) at 80° C. for 20 min in ambient air. Then, the substrate was subsequently sonicated in toluene and rinsed with additional toluene several times. Anhydrous chlorobenzene (50 μL) was used as a droplet dropping on the substrates. All contact angle images were taken at the direction perpendicular to nano-grooves in the substrates using Dataphysics OCA 15EC goniometer.
# [2] = AFM images of Z-Cat-C10 films; type: physicochemical; conditions: 5 mM, on silicon wafers and copper
# Procedure: The adhesion/cohesion energy of the synthetic zwitterionic molecules was investigated in SFA (SurForce LLC, Santa Barbara, CA). Two molecularly smooth freshly cleaved back silvered mica surfaces glued on cylindrical silica discs of radius of curvature, R˜2 cm, were mounted in the SFA and 50 μL of a colloidal dispersion of the synthetic molecules in DI water were injected between the surfaces at different concentrations (C=0.5-5 mM) and the forces between the thin films of the molecules were measured by Multiple Beam Interferometry (MBI). The adhesion forces between Z-Cat-C10 molecules on various surfaces, e.g., silica and copper, were also measured by AFM (MFP-3D, Asylum research, Goleta, CA) in DI water and ambient conditions, respectively, at room temperature. AFM probes with a silicon dioxide particle (10, 5, and 1 μm, respectively) on a silicon nitride (SN) cantilever-0.6 N m^−1 were purchased from Novascan Technologies, Inc (Ames, IA). Cantilever spring constants were measured for each force run. Images of Z-Cat-C10 coating on silicon wafer and copper plates were visualized in an AFM.
# [3] = Lap joint bending peel test
# Procedure: Below are the detailed methods following in sequential order in time: • 1) The aqueous Z-Cat-C10 solution was prepared at 100 mg ml^−1 concentration (very turbid solution at room temperature) (FIG. 10A test-tube on the left). • 2) The solution was centrifuged at 3000 rpm (805×g) for 5 min to expedite the process of liquid-liquid phase separation (FIG. 10A test-tubes in the middle and the right). 3) The lower dense coacervate phase was collected in a syringe (FIG. 24A) and injected (spread, ˜10 μl) over a steel plate immersed in water i.e., artificial sea water, aqueous periodate solution, and DI water, respectively (FIG. 24B). • 4) Another steel plate glued onto the steel plate with coacervates on as a lap joint (cross-sectional area 2.54 cm×2.54 cm. • 5) The each lap joint was loaded (250 g) for 12 h of compressive setting (FIG. 24C). • 6) The lap joint bending peel test was conducted underwater for each lap joint prepared in artificial seawater, aqueous periodate solution, and DI water, respectively (FIGS. 24D-24F). • 7) The lap joint bending peel test was conducted dry ambient condition for the lap joint prepared in the periodate solution after 12 h drying in ambient condition Standard Three Point Bending Peel Test
# The catecholic zwitterions were inspired by interfacial proteins (mfp-3 and -5) that function as adhesive primers, but not as bulk adhesives. To determine whether Z-Cat-C10 is limited to surface binding or develops measurable bulk cohesion (thickness […]), bulk rupture tests were done using a peeling-by-bending test to better mimic the role that interfacial proteins play in resisting plaque detachment as well as lap-shear bonding test. Lap joints were prepared by gluing two steel plates (SS304) immersed in water using the lower dense coacervate (˜10 μl) (FIGS. 24A-24H). The lap joint (cross-sectional area=2.54 cm×2.54 cm) prepared in artificial seawater or periodate solution, respectively, held a load up to 3 N underwater. […] After 12 h ambient drying, the joint prepared in 1 M periodate solution held much higher load, 11 N: Standard three point bending peel strength of the lap joint (cross-sectional area=2.54 cm×1.27 cm) was measured under ambient dry conditions after drying 12 h. […] Shear bonding strength of the lap joint (cross-sectional area=2.54 cm×2.54 cm) was also measured, 1.1 MPa (standard deviation=0.3, n=4)—similar to Dopa-functionalized polypeptide prepared under ambient dry conditions, 0.9 MPa. […] Nevertheless, the results present that the zwitterionic surfactants were capable of micro-gap-filling as well as nano-gap-filling shown in AFM and SFA, and indicate that they are more versatile than surface primers. The results also attest to the self-assembling ability of Z-Cat-C10 (FIGS. 13A-13C, double bilayer structure).
# [4] = AFM adhesion force runs with silica probe on Z-Cat-C10 coated copper plate; type: physicochemical; conditions: CuO2/Cu(OH)2 and SiO2 surfaces
# Procedure: AFM force runs were measured with and without Z-Cat-C10 on silicon wafer and copper plate, respectively, vs. silicon dioxide probe. Underwater force run was conducted for the surface prepared subsequently after spreading the 5 mM Z-Cat-C10, waiting for 2 min, rinsing thoroughly with degassed DI water thoroughly for 3 times. Dry force run was performed after ˜5 min dry of the surface prepared as for the underwater force run. […] Cantilever spring constant (K) for #=10 μm silica tip on silicon wafer and copper plate with Z-Cat-C10, was 0.1 N m^−1.
# The measured adhesion, Fa, force (minimum of the potential well of the F vs. D curves obtained from AFM measurements) is related to the adhesion energy per unit area by Wa=Fa/2πR for rigid surfaces with weak adhesive interactions, and by Wa=Fa/1.5πR (used in this study) for soft deformable surfaces with strong adhesion or cohesion. […]
# The adhesion/cohesion energy of the synthetic zwitterionic molecules was investigated in SFA (SurForce LLC, Santa Barbara, CA). […] The adhesion forces between Z-Cat-C10 molecules on various surfaces, e.g., silica and copper, were also measured by AFM (MFP-3D, Asylum research, Goleta, CA) in DI water and ambient conditions, respectively, at room temperature. […] Cantilever spring constants were measured for each force run. […]
# [5] = Shear bonding strength of the lap joint; conditions: cross-sectional area 2.54 cm×2.54 cm, n=4
# Procedure: The catecholic zwitterions were inspired by interfacial proteins (mfp-3 and -5) that function as adhesive primers, but not as bulk adhesives. To determine whether Z-Cat-C10 is limited to surface binding or develops measurable bulk cohesion (thickness […]), bulk rupture tests were done using a peeling-by-bending test to better mimic the role that interfacial proteins play in resisting plaque detachment as well as lap-shear bonding test. Lap joints were prepared by gluing two steel plates (SS304) immersed in water using the lower dense coacervate (˜10 μl) (FIGS. 24A-24H). The lap joint (cross-sectional area=2.54 cm×2.54 cm) prepared in artificial seawater or periodate solution, respectively, held a load up to 3 N underwater. […] After 12 h ambient drying, the joint prepared in 1 M periodate solution held much higher load, 11 N: Standard three point bending peel strength of the lap joint (cross-sectional area=2.54 cm×1.27 cm) was measured under ambient dry conditions after drying 12 h. […] Shear bonding strength of the lap joint (cross-sectional area=2.54 cm×2.54 cm) was also measured, 1.1 MPa (standard deviation=0.3, n=4)—similar to Dopa-functionalized polypeptide prepared under ambient dry conditions, 0.9 MPa. […]
contact angle θ of chlorobenzene droplet [1],"film thickness (thin, molecularly smooth films) [2]",SMILES,load held by lap joint ([3]; dry ambient conditions (Z-Cat-C10 joint prepared in aqueous periodate)),"load held by lap joint ([3]; prepared in 1 M periodate, after 12 h ambient drying)",load held by lap joint ([3]; prepared in DI water),"load held by lap joint ([3]; underwater, prepared in artificial seawater or periodate solution)",adhesion Wad after air-drying ([4]; air-dried ~5 min),wet work of adhesion Wad ([4]; underwater),shear bonding strength of the lap joint [5]
≈ 1 °,–,C[N+](C)(CCCc1ccccc1)CCOP(=O)([O-])OCCCc1ccc(O)c(O)c1 [Z-Cat-Ben],–,–,–,–,–,–,–
–,~2 nm,CN(C)CCOP(=O)(O)OCCCc1ccc(O)c(O)c1 [Z-Cat-C10],≤ 1.1 kg,11 N,1 N,up to 3 N,~4 mJ m^−2,~0.1 mJ m^−2,1.1 MPa
